# Source: patent publication US20240173289A1, “USE OF OXYMETHYL-MODIFIED DERIVATIVE OF QUERCETIN IN PREPARATION OF DRUG FOR INHIBITING TUMOR CELL PROLIFERATION” (ZHEJIANG UNIVERSITY, priority 2021, published 2024)
# Tests used:
# [1] = tested on: HepG2 transplanted tumors; experiment: proliferation of HepG2 transplanted tumors in nude mice in vivo; set-up: species or system BALB/c nude mice; details: 50 mg/kg bw·d intraperitoneal
# Protocol: BALB/c nude mice (5 to 6 weeks old), weighing 19 g to 22 g, were purchased from Shanghai Experimental Animal Center, Chinese Academy of Sciences. HepG2 cells were collected in a serum-free DMEM medium to make a cell suspension, and then the cell suspension was injected into an underarm area of each mouse, approximately 2.0×10^6 cells, one site per mouse. All mice were bred in the Experimental Animal Center of Zhejiang University, under the environment of 23° C. to 25° C., humidity 50% to 60%, and cycle of 12 h light illumination/dark 12 h. After tumor formation, the mice were randomly divided into 3 groups with 7 mice in each group. The model group was given saline by intraperitoneal injection; the positive drug group was given tegafur at 10 mg/kg bw·d by intraperitoneal injection; the treatment group was intraperitoneally injected with the quercetin 3,3′-dimethyl ether at 50 mg/kg bw·d. According to the change of tumor volume, after the tumor formed, intraperitoneal injection was conducted every 1 d to 2 d, the tumor volume was measured, and the body weight of the mice was weighed. When there was a significant difference in tumor volume between different treatment groups, the mice were sacrificed by cervical dislocation, and the tumor tissue was carefully peeled off, weighed, and calculated. The formulas were: tumor formation rate (%)=(number of tumor-forming mice in treatment group/number of tumor-forming mice in inoculation group)×100; tumor inhibition rate (%)=(average tumor weight in control group (g)−average tumor weight in administration group (g))/average tumor weight in control group (g)×100. Serum, liver, spleen, and kidney were collected and weighed.
# osteosarcoma cells HOS = experiment: scratch closure test; type: cell-based; details: 4 mg/L, 24 h, versus control group, read-out: inhibition rate of scratch closure
# Protocol: (§1) Cells with a certain density (6×10^5 cells per mL for AGS, T47D, Caco2, BCPAP, GES, HUVEC; 5×10^5 cells per mL for HepG2, MDA-MB-231, BGC-823, A549, PC3, L02; 3×10^5 cells per mL for 143B, HOS, U2, SGC-7901, Hela, BV-2; and 1.8×10^6 cells per mL for WI-38) were spread on a 6-well plate (1 mL per well), added with a DMEM medium containing 10% fetal calf serum, and cultured overnight to form a monolayer of cells. A horizontal scratch was scratched on the monolayer of cells with a pipette tip of 200 μL, washed with PBS 3 times, added into a DMEM medium containing 10% fetal bovine serum, and then added with corresponding dosages of a quercetin 3,3′-dimethyl ether solution (the dosage of osteosarcoma cells was 143B: 4 mg/L, HOS: 4 mg/L, U2: 10 mg/L; the dosage of breast cancer cells was MDA-MB-231: 2 mg/L, T47D: 3 mg/L; the dosage of gastric cancer cells was SGC7901: 6 mg/L, BGC823: 5 mg/L, AGS: 3 mg/L; the dosage of cervical cancer Hela cells was 2 mg/L; the dosage of lung cancer cell A549 was 3 mg/L; the dosage of intestinal cancer cells Caco2 was 4 mg/L; the dosage of mouse glioma BV2 was 4 mg/L; the dosage of human prostate cancer cells PC3 was 6 mg/L; and the dosage of human thyroid cancer cells BCPAP was 2 mg/L), while DMSO was used as a solvent control, and then incubated for 24 h. A scratch width and a measurement width were determined under a microscope, and a scratch closure ratio was calculated as follows: scratch closure ratio=(scratch width−measurement width)/scratch width×100%. Scratch inhibition ratio=(scratch closure ratio of control group−scratch closure ratio of treatment group)/scratch closure ratio of control group×100%.
# [2] = tested on: human thyroid cancer cells BCPAP; experiment: scratch closure test; type: cell-based; details: 2 mg/L, 24 h
# Protocol: as §1
# osteosarcoma cells 143B = experiment: scratch closure test; type: cell-based; details: Homo sapiens, 4 mg/L, 24 h, versus control group, read-out: inhibition rate of scratch closure
# Protocol: as §1
# mouse glioma BV2 = experiment: scratch closure test; type: cell-based; details: 4 mg/L, 24 h
# Protocol: as §1
# [3] = tested on: cervical cancer Hela cells; experiment: scratch closure test; type: cell-based; details: 2 mg/L, 24 h
# Protocol: as §1
# osteosarcoma cells U2 = experiment: scratch closure test; type: cell-based; details: 10 mg/L, 24 h
# Protocol: as §1
# gastric cancer cells AGS = experiment: scratch closure test; type: cell-based; details: 3 mg/L, 24 h
# Protocol: as §1
# [4] = tested on: human umbilical vein epithelial cells HUVEC; experiment: in vitro proliferation inhibition on normal cells (CCK-8); type: cell-based; details: 48 h, read-out: half-inhibitory concentration
# Source text: (§2) Osteosarcoma cell line 143B, HOS, and U2, liver cancer cell line HepG2, breast cancer cell line MDA-MB-231 and T47D, gastric cancer cell line AGS, BGC-823, and SGC-7901, cervical cancer cells Hela, lung cancer cells A549, intestinal cancer cells Caco2, mouse glioma cells BV-2, human prostate cancer cells PC3, human thyroid cancer cell line BCPAP, human normal liver cell line L02, human normal gastric cell line GES, human umbilical vein epithelial cells HUVEC, and human embryonic lung fibroblasts WI-38 were cultured in a DMEM medium containing 10% fetal bovine serum and 1×HEPES in a humid incubator (37° C., 5% CO2). The cells were passaged with trypsin-EDTA in logarithmic phase. Certain density of cells (AGS, T47D, Caco2, BCPAP, GES, HUVEC 1×10^5 cells per well; HepG2, MDA-MB-231, BGC-823, A549, PC3, L02 8×10^4 cells per well; 143B, HOS, U2, SGC-7901, Hela, BV-2, 5×10^4 cells per well; WI-38, 3×10^5 cells per well) were inoculated in a 96-well plate, and cultured for 24 h before treatment. After replacing a fresh medium, 12.5 mg/L to 400 mg/L, of quercetin 3,3′-dimethyl ether dissolved with DMSO was added into a medium (a final volume ratio was 0.1%, and the DMSO was used as a […]). After incubation for 48 h, a complete medium was replaced with a serum-free medium containing 10% CCK-8 reagent. The absorbance at 450 nm and 620 nm was measured separately after the cells were incubated for 1 h. Each experiment was repeated three times independently.
# [5] = tested on: human normal gastric cell line GES; experiment: as above; type: cell-based; details: 48 h, read-out: half-inhibitory concentration
# Source text: as §2
# [6] = tested on: human embryonic lung fibroblasts WI-38; experiment: as above; type: cell-based; details: 48 h, read-out: half-inhibitory concentration
# Source text: as §2
# [7] = tested on: human normal liver cell line L02; experiment: as above; type: cell-based; details: 48 h, read-out: half-inhibitory concentration
# Source text: as §2
# [8] = Homo sapiens, versus control group, read-out: inhibition rate of scratch closure
# [9] = versus control group, read-out: inhibition rate of scratch closure
smiles,measurement,setting,value
"COc1cc(-c2oc3cc(O)cc(O)c3c(=O)c2OC)ccc1O [Quercetin 3,3′-dimethyl ether, quercetin 3,3′-dimethyl ether]","tumor weight, lower than that of the control group",[1],52.19%
same,tumor volume,"[1]; day 24, 10 injections, HepG2 nude mice",284.19±85.47 mm^3
same,tumor weight,[1]; tumor peeled off at sacrifice,194.57 ± 75.45 mg
same,inhibition at 4 µg/mL,osteosarcoma cells HOS,57.6%
same,Treatment scratch closed %,[2],30.31 ± 5.21 %
same,inhibition at 2 µg/mL,[2]; [8],64.7%
same,inhibition at 4 µg/mL,osteosarcoma cells 143B,54.3%
same,Treatment scratch closed %,mouse glioma BV2; BV-2,21.17 ± 8.55 %
same,inhibition at 4 µg/mL,"mouse glioma BV2; Mus musculus, BV2, versus control group, read-out: inhibition rate of scratch closure",75.2%
same,Treatment scratch closed %,[3],37.42 ± 1.62 %
same,inhibition at 2 µg/mL,[3]; [8],54%
same,Treatment scratch closed %,osteosarcoma cells U2,27.67 ± 6.81 %
same,inhibition at 10 µg/mL,osteosarcoma cells U2; [9],70.5%
same,Treatment scratch closed %,gastric cancer cells AGS,31.67 ± 3.39 %
same,inhibition at 3 µg/mL,gastric cancer cells AGS; [9],60.9%
same,IC50,[4],> 100 µg/mL
same,IC50,[5],> 100 µg/mL
same,IC50,[6],> 100 µg/mL
same,IC50,[7],> 100 µg/mL
